The text below walks through data of patent US10611740B2, “Aryl dihydro-2H-benzo[b][1,4]oxazine sulfonamide and related compounds for use as agonists of RORγ and the treatment of disease” (Lycera Corporation, priority 2015, dated 2020).

For orientation: EC50 means the concentration needed to bring the measured effect to its halfway point. A higher EC50 goes with lower potency in that assay.

One experiment concerns the target T1, Gal4-RORγ-LBD (Homo sapiens, UniProt P51449).
T1 construct: expressed in transfected cells; host or cells: HEK-293 cells (pcDNA3.1neo plasmid)
T1 sequence (P51449 269-508 limits assumed): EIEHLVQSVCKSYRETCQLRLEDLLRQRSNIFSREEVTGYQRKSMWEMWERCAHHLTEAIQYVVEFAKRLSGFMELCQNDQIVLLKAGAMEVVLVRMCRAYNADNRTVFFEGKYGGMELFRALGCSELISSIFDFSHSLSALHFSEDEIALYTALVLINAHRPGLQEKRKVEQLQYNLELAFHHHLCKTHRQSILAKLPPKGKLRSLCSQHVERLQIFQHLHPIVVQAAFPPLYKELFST
Put plainly: Gal4-RORγ Luciferase Reporter Assay in HEK-293T Cells. The conditions noted are these: HEK-293 cells. The class given is cell-based. In outline: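 Luminescence read-out (One-Glo, 10 min RT) after overnight compound exposure at 37 °C in HEK-293 cells carrying Gal4-RORγ-LBD plus a Gal4-luciferase reporter, in the presence of 2 μM ursolic acid. Max Response is the upper plateau from a 4-parameter logistic fit, normalized to untreated signal = 100.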
On the technique in general: In a reporter assay the amount or activity of a reporter protein is the signal.

For the next experiment, the target named is T2, RORγ-LBD (Homo sapiens, UniProt P51449).
T2 construct: made in house; host or cells: SF9 cells (baculovirus)
T2 sequence (P51449 269-508 limits assumed): T1 sequence (P51449 269-508 limits assumed)
Put plainly: RORγ-Ligand Binding Domain (LBD) TR-FRET Assay.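 On TR-FRET Assay Max Response: 665/615 nm ratio relative to signal without ursolic acid or compound set at 100.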 It is filed as biochemical. In outline:
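TR-FRET read-out using a biotin-tagged SRC1 coactivator LXXLL peptide (200 nM final), with the antagonist ursolic acid present at 2 μM final. Receptor is His-tagged LBD expressed in SF9 cells, ~3 nM final in pH 7.0 Tris/KCl/EDTA/DTT/BSA buffer; compounds in 1% DMSO final.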

[1] abbreviates: luciferase reporter, with 2 μM ursolic acid.

Take `CNS(=O)(=O)NC[C@H]1CN(S(=O)(=O)c2cccc(C(F)(F)F)c2)c2cc(-c3cc(F)ccc3F)ccc2O1` [Compound 44, ([[(2S)-6-(2,5-difluorophenyl)-4-[[3-(trifluoromethyl)benzene]sulfonyl]-3,4-dihydro-2H-1,4-benzoxazin-2-yl]methyl]sulfamoyl)(methyl)amine]: on Gal4-RORγ-LBD (setting [1]), the EC50 was less than 500 nM and the “Gal4-RORγ Assay Max Response” value is “** (The symbol “**” indicates a value in the range of greater than 90 to 150)”. On RORγ-LBD, the EC50 was less than 500 nM and the “TR-FRET Assay Max Response” value is reported as “**** (The symbol “****” indicates a value greater than 200)”.

On to `CN(C)S(=O)(=O)NC[C@H]1CN(S(=O)(=O)c2cccc(C(F)(F)F)c2)c2cc(-c3cc(F)ccc3F)ccc2O1` [Compound 45A, ([[(2S)-6-(2,5-difluorophenyl)-4-[[3-(trifluoromethyl)-benzene]-sulfonyl]-3,4-dihydro-2H-1,4-benzoxazin-2-yl]methyl]sulfamoyl)-(dimethyl)amine], for which, on Gal4-RORγ-LBD (setting [1]), the EC50 was less than 500 nM and the “Gal4-RORγ Assay Max Response” value is reported as “** (The symbol “**” indicates a value in the range of greater than 90 to 150)”. Besides, on RORγ-LBD, the EC50 was less than 500 nM and the “TR-FRET Assay Max Response” value is given as “**** (The symbol “****” indicates a value greater than 200)”.

Turning to `COc1cc(S(=O)(=O)N2C[C@H](CNS(=O)(=O)N(C)C)Oc3ccc(-c4cc(F)ccc4F)cc32)ccc1F` [Compound 45C, ([[(2S)-6-(2,5-difluorophenyl)-4-[[4-fluoro-3-methoxy-benzene]-sulfonyl]-3,4-dihydro-2H-1,4-benzoxazin-2-yl]methyl]sulfamoyl)-(dimethyl)amine], on Gal4-RORγ-LBD (setting [1]), the EC50 is less than 500 nM and the “Gal4-RORγ Assay Max Response” value is on record as “* (The symbol “*” indicates a value in the range of 25 to 90)”. On RORγ-LBD, the EC50 is less than 500 nM and the “TR-FRET Assay Max Response” value was “*** (The symbol “***” indicates a value in the range of greater than 150 to 200)”.

With `COc1cc(S(=O)(=O)N2C[C@H](CNS(=O)(=O)N(C)CCO)Oc3ccc(-c4cc(F)ccc4F)cc32)ccc1F` [Compound 45D, ([[(2S)-6-(2,5-difluorophenyl)-4-[[4-fluoro-3-methoxy-benzene]-sulfonyl]-3,4-dihydro-2H-1,4-benzoxazin-2-yl]methyl]sulfamoyl)-(N-methyl-N-2-hydroxyethyl)-amine], at Gal4-RORγ-LBD (2 μM ursolic acid), the EC50 is less than 500 nM and the “Gal4-RORγ Assay Max Response” value is listed as “* (The symbol “*” indicates a value in the range of 25 to 90)”. At RORγ-LBD, the EC50 was less than 500 nM and the “TR-FRET Assay Max Response” value was “*** (The symbol “***” indicates a value in the range of greater than 150 to 200)”.

For `COc1cc(S(=O)(=O)N2C[C@H](CNS(=O)(=O)N3CC[C@H](O)C3)Oc3ccc(-c4cc(F)ccc4F)cc32)ccc1F` [Compound 45E, (S)-N-(((S)-6-(2,5-difluoro-phenyl)-4-((4-fluoro-3-methoxyphenyl)sulfonyl)-3,4-dihydro-2H-benzo[b][1,4]oxazin-2-yl)methyl)-3-hydroxy-pyrrolidine-1-sulfonamide], at Gal4-RORγ-LBD (2 μM ursolic acid), the half-maximal effective concentration (EC50) is less than 500 nM and the “Gal4-RORγ Assay Max Response” value is given as “** (The symbol “**” indicates a value in the range of greater than 90 to 150)”. Also, at RORγ-LBD, the EC50 is less than 500 nM and the “TR-FRET Assay Max Response” value is reported as “*** (The symbol “***” indicates a value in the range of greater than 150 to 200)”.

With `Cc1c(F)cc(-c2ccc3c(c2)N(S(=O)(=O)c2cccc(C(F)(F)F)c2)C[C@H](CC(C)C(=O)O)O3)c(Cl)c1F` (stereo partly drawn) [Compound 46A, 3-((S)-6-(2-chloro-3,5-difluoro-4-methylphenyl)-4-((3-(trifluoro-methyl)phenyl)sulfonyl)-3,4-dihydro-2H-benzo[b][1,4]oxazin-2-yl)-2-methylpropanoic acid], on Gal4-RORγ-LBD (setting [1]), the EC50 was 500 to 5000 nM and the “Gal4-RORγ Assay Max Response” value was “** (The symbol “**” indicates a value in the range of greater than 90 to 150)”. Also, at RORγ-LBD, the EC50 was less than 500 nM and the “TR-FRET Assay Max Response” value was “*** (The symbol “***” indicates a value in the range of greater than 150 to 200)”.

As for `C[C@H](C[C@H]1CN(S(=O)(=O)c2cccc(C(F)(F)F)c2)c2cc(-c3cc(F)cc(F)c3Cl)ccc2O1)C(=O)O` [Compound 46B, (R)-3-((S)-6-(2-chloro-3,5-difluorophenyl)-4-((3-(trifluoro-methyl)phenyl)sulfonyl)-3,4-dihydro-2H-benzo[b][1,4]oxazin-2-yl)-2-methylpropanoic acid], at Gal4-RORγ-LBD (setting [1]), the EC50 was less than 500 nM and the “Gal4-RORγ Assay Max Response” value is given as “** (The symbol “**” indicates a value in the range of greater than 90 to 150)”. At RORγ-LBD, the EC50 is less than 500 nM and the “TR-FRET Assay Max Response” value is reported as “*** (The symbol “***” indicates a value in the range of greater than 150 to 200)”.

With `C[C@@H](C[C@H]1CN(S(=O)(=O)c2cccc(C(F)(F)F)c2)c2cc(-c3cc(F)cc(F)c3Cl)ccc2O1)C(=O)O` [Compound 46C, (S)-3-((S)-6-(2-chloro-3,5-difluorophenyl)-4-((3-(trifluoro-methyl)phenyl)sulfonyl)-3,4-dihydro-2H-benzo[b][1,4]oxazin-2-yl)-2-methylpropanoic acid], at Gal4-RORγ-LBD (setting [1]), the EC50 was less than 500 nM and the “Gal4-RORγ Assay Max Response” value was “** (The symbol “**” indicates a value in the range of greater than 90 to 150)”. On RORγ-LBD, the EC50 was less than 500 nM and the “TR-FRET Assay Max Response” value was “*** (The symbol “***” indicates a value in the range of greater than 150 to 200)”.

As for `C[C@H](C[C@H]1CN(S(=O)(=O)c2cccc(C(F)(F)F)c2)c2cc(-c3cccc(Cl)c3F)ccc2O1)C(=O)O` [Compound 46D, (R)-3-((S)-6-(3-chloro-2-fluoro-phenyl)-4-((3-(trifluoromethyl)-phenyl)sulfonyl)-3,4-dihydro-2H-benzo[b][1,4]oxazin-2-yl)-2-methylpropanoic acid], at Gal4-RORγ-LBD (2 μM ursolic acid), the EC50 is less than 500 nM and the “Gal4-RORγ Assay Max Response” value was “** (The symbol “**” indicates a value in the range of greater than 90 to 150)”. Also, at RORγ-LBD, the EC50 was less than 500 nM and the “TR-FRET Assay Max Response” value is “*** (The symbol “***” indicates a value in the range of greater than 150 to 200)”.

For `C[C@@H](C[C@H]1CN(S(=O)(=O)c2cccc(C(F)(F)F)c2)c2cc(-c3cccc(Cl)c3F)ccc2O1)C(=O)O` [Compound 46E, (S)-3-((S)-6-(3-chloro-2-fluoro-phenyl)-4-((3-(trifluoromethyl)-phenyl)sulfonyl)-3,4-dihydro-2H-benzo[b][1,4]oxazin-2-yl)-2-methylpropanoic acid], on Gal4-RORγ-LBD (2 μM ursolic acid), the EC50 was 500 to 5000 nM and the “Gal4-RORγ Assay Max Response” value was “* (The symbol “*” indicates a value in the range of 25 to 90)”. For the same molecule, at RORγ-LBD, the EC50 was less than 500 nM and the “TR-FRET Assay Max Response” value is “** (The symbol “**” indicates a value in the range of greater than 90 to 150)”.

For `CC[C@H](C[C@H]1CN(S(=O)(=O)c2cccc(C(F)(F)F)c2)c2cc(-c3cc(F)cc(F)c3Cl)ccc2O1)C(=O)O` [Compound 46F, (R)-2-(((S)-6-(2-chloro-3,5-difluorophenyl)-4-((3-(trifluoro-methyl)phenyl)sulfonyl)-3,4-dihydro-2H-benzo[b][1,4]oxazin-2-yl)methyl)butanoic acid], on Gal4-RORγ-LBD (2 μM ursolic acid), the EC50 is 500 to 5000 nM and the “Gal4-RORγ Assay Max Response” value is reported as “* (The symbol “*” indicates a value in the range of 25 to 90)”. In addition, on RORγ-LBD, the EC50 is less than 500 nM and the “TR-FRET Assay Max Response” value is reported as “*** (The symbol “***” indicates a value in the range of greater than 150 to 200)”.

As for `CC[C@@H](C[C@H]1CN(S(=O)(=O)c2cccc(C(F)(F)F)c2)c2cc(-c3cc(F)cc(F)c3Cl)ccc2O1)C(=O)O` [Compound 46G, (S)-2-(((S)-6-(2-chloro-3,5-difluorophenyl)-4-((3-(trifluoro-methyl)phenyl)sulfonyl)-3,4-dihydro-2H-benzo[b][1,4]oxazin-2-yl)methyl)butanoic acid], at Gal4-RORγ-LBD (2 μM ursolic acid), the EC50 is less than 500 nM and the “Gal4-RORγ Assay Max Response” value is listed as “** (The symbol “**” indicates a value in the range of greater than 90 to 150)”. Further, on RORγ-LBD, the EC50 was less than 500 nM and the “TR-FRET Assay Max Response” value is on record as “** (The symbol “**” indicates a value in the range of greater than 90 to 150)”.

As to `O=S(=O)(c1cccc(C(F)(F)F)c1)N1C[C@H](CC2(CO)COC2)Oc2ccc(-c3cc(F)cc(OC(F)F)c3)cc21` [Compound 49, (S)-(3-((6-(3-(difluoromethoxy)-5-fluorophenyl)-4-((3-(trifluoromethyl)phenyl)sulfonyl)-3,4-dihydro-2H-benzo[b][1,4]oxazin-2-yl)methyl)oxetan-3-yl)methanol], on Gal4-RORγ-LBD (2 μM ursolic acid), the EC50 is less than 500 nM and the “Gal4-RORγ Assay Max Response” value is recorded as “** (The symbol “**” indicates a value in the range of greater than 90 to 150)”. Also, at RORγ-LBD, the EC50 is less than 500 nM and the “TR-FRET Assay Max Response” value is “** (The symbol “**” indicates a value in the range of greater than 90 to 150)”.
